Source: the supplement of paper PMC11208160

Test: recombinant barcode read abundance after kanamycin selection (control-corrected) (log10(CPM+1)); higher = more efficient recombination; sequences stand for … in AGTGCAGAGAAAATCGGCCAGTTTTCTCTGCCTGCAGTCCGCATGCCGT…ATTTATGCAGCGGACTGCCTTTCTCCCAAAGTGATAAACCGGACAGTATCATGGACCGGTTTTCCCGGTAATCCGTATTTGCAAGGTTGGTTTCACT; site = the 11-nt target
Procedure: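 Same pooled E. coli target screen (IS621 bridge recombinase, kanamycin selection, control-corrected CPM, mean of 2 biological replicates). Here the two core-binding nucleotides of the LTG and RTG of the bridge RNA target-binding loop are mutated. Target and donor CT cores are held constant, and the other 9 guide positions match the target. The target is read from the library oligo sequence. Molecule = full bridge RNA written as DNA: nt 1-80 from the library oligo, rest WT scaffold.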

Sequence	recombinant barcode read abundance (log10)
AGGCGGGGATGGGTTCTAACCTGTTGCGGTC [AGGCGGGCTCC_LTGcore_GA_RTGcore_GA] (site AGGCGGGCTCC) (LTG core: GA, RTG core: GA)	0.133
AGGCGGGGGTGGGTTCTAACCTGTTGCGGAG [AGGCGGGCTCC_LTGcore_GG_RTGcore_CT] (site AGGCGGGCTCC) (LTG core: GG, RTG core: CT)	0.101
AGGCGGGGTTGGGTTCTAACCTGTTGCGGAG [AGGCGGGCTCC_LTGcore_GT_RTGcore_CT] (site AGGCGGGCTCC) (LTG core: GT, RTG core: CT)	0.871
AGGCGGGTATGGGTTCTAACCTGTTGCGGTA [AGGCGGGCTCC_LTGcore_TA_RTGcore_TA] (site AGGCGGGCTCC) (LTG core: TA, RTG core: TA)	0.364
AGGCGGGTTTGGGTTCTAACCTGTTGCGGAA [AGGCGGGCTCC_LTGcore_TT_RTGcore_TT] (site AGGCGGGCTCC) (LTG core: TT, RTG core: TT)	0.299
AGGCGGTAATGGGTTCTAACCTGTTGCTTAG [AGGCGGTCTAA_LTGcore_AA_RTGcore_CT] (site AGGCGGTCTAA) (LTG core: AA, RTG core: CT)	0.371
AGGCGGTAATGGGTTCTAACCTGTTGCTTTT [AGGCGGTCTAA_LTGcore_AA_RTGcore_AA] (site AGGCGGTCTAA) (LTG core: AA, RTG core: AA)	0.0996
AGGCGGTCTTGGGTTCTAACCTGTTGCTTCC [AGGCGGTCTAA_LTGcore_CT_RTGcore_GG] (site AGGCGGTCTAA) (LTG core: CT, RTG core: GG)	0.0963
AGGCGGTCTTGGGTTCTAACCTGTTGCTTGT [AGGCGGTCTAA_LTGcore_CT_RTGcore_AC] (site AGGCGGTCTAA) (LTG core: CT, RTG core: AC)	0.127
AGGCGGTCTTGGGTTCTAACCTGTTGCTTTT [AGGCGGTCTAA_LTGcore_CT_RTGcore_AA] (site AGGCGGTCTAA) (LTG core: CT, RTG core: AA)	0.0668
AGGCGGTGCTGGGTTCTAACCTGTTGCTTAG [AGGCGGTCTAA_LTGcore_GC_RTGcore_CT] (site AGGCGGTCTAA) (LTG core: GC, RTG core: CT)	0.419
AGGCGGTGTTGGGTTCTAACCTGTTGCTTAG [AGGCGGTCTAA_LTGcore_GT_RTGcore_CT] (site AGGCGGTCTAA) (LTG core: GT, RTG core: CT)	0.203
AGGCGGTTGTGGGTTCTAACCTGTTGCTTAG [AGGCGGTCTAA_LTGcore_TG_RTGcore_CT] (site AGGCGGTCTAA) (LTG core: TG, RTG core: CT)	0.113
AGTCTTAAGTGGGTTCTAACCTGTTGCCAAG [AGTCTTACTTG_LTGcore_AG_RTGcore_CT] (site AGTCTTACTTG) (LTG core: AG, RTG core: CT)	0.102
AGTCTTAATTGGGTTCTAACCTGTTGCCAAT [AGTCTTACTTG_LTGcore_AT_RTGcore_AT] (site AGTCTTACTTG) (LTG core: AT, RTG core: AT)	0.0434
AGTCTTACCTGGGTTCTAACCTGTTGCCAGG [AGTCTTACTTG_LTGcore_CC_RTGcore_CC] (site AGTCTTACTTG) (LTG core: CC, RTG core: CC)	0.117
AGTCTTACTTGGGTTCTAACCTGTTGCCACA [AGTCTTACTTG_LTGcore_CT_RTGcore_TG] (site AGTCTTACTTG) (LTG core: CT, RTG core: TG)	0.032
AGTCTTATATGGGTTCTAACCTGTTGCCAAG [AGTCTTACTTG_LTGcore_TA_RTGcore_CT] (site AGTCTTACTTG) (LTG core: TA, RTG core: CT)	0.0306
AGTCTTATTTGGGTTCTAACCTGTTGCCAAA [AGTCTTACTTG_LTGcore_TT_RTGcore_TT] (site AGTCTTACTTG) (LTG core: TT, RTG core: TT)	0.0474
ATGCTTTAATGGGTTCTAACCTGTTGCCTAG [ATGCTTTCTAG_LTGcore_AA_RTGcore_CT] (site ATGCTTTCTAG) (LTG core: AA, RTG core: CT)	0.0699
ATGCTTTATTGGGTTCTAACCTGTTGCCTAG [ATGCTTTCTAG_LTGcore_AT_RTGcore_CT] (site ATGCTTTCTAG) (LTG core: AT, RTG core: CT)	0.162
ATGCTTTCTTGGGTTCTAACCTGTTGCCTAG [ATGCTTTCTAG_LTGcore_CT_RTGcore_CT] (site ATGCTTTCTAG) (LTG core: CT, RTG core: CT)	0.384

Sequence	recombinant barcode read abundance (log10)
ATGCTTTCTTGGGTTCTAACCTGTTGCCTCT [ATGCTTTCTAG_LTGcore_CT_RTGcore_AG] (site ATGCTTTCTAG) (LTG core: CT, RTG core: AG)	0.0217
ATGCTTTCTTGGGTTCTAACCTGTTGCCTGA [ATGCTTTCTAG_LTGcore_CT_RTGcore_TC] (site ATGCTTTCTAG) (LTG core: CT, RTG core: TC)	0.0714
ATGCTTTGCTGGGTTCTAACCTGTTGCCTAG [ATGCTTTCTAG_LTGcore_GC_RTGcore_CT] (site ATGCTTTCTAG) (LTG core: GC, RTG core: CT)	0.0505
ATGCTTTGGTGGGTTCTAACCTGTTGCCTCC [ATGCTTTCTAG_LTGcore_GG_RTGcore_GG] (site ATGCTTTCTAG) (LTG core: GG, RTG core: GG)	0.235
ATGTCCCACTGGGTTCTAACCTGTTGCTCGT [ATGTCCCCTGA_LTGcore_AC_RTGcore_AC] (site ATGTCCCCTGA) (LTG core: AC, RTG core: AC)	0.183
ATGTCCCAGTGGGTTCTAACCTGTTGCTCAG [ATGTCCCCTGA_LTGcore_AG_RTGcore_CT] (site ATGTCCCCTGA) (LTG core: AG, RTG core: CT)	0.0996
ATGTCCCATTGGGTTCTAACCTGTTGCTCAG [ATGTCCCCTGA_LTGcore_AT_RTGcore_CT] (site ATGTCCCCTGA) (LTG core: AT, RTG core: CT)	0.234
ATGTCCCCTTGGGTTCTAACCTGTTGCTCCG [ATGTCCCCTGA_LTGcore_CT_RTGcore_CG] (site ATGTCCCCTGA) (LTG core: CT, RTG core: CG)	0.249
ATGTCCCCTTGGGTTCTAACCTGTTGCTCGC [ATGTCCCCTGA_LTGcore_CT_RTGcore_GC] (site ATGTCCCCTGA) (LTG core: CT, RTG core: GC)	0.327
ATGTCCCCTTGGGTTCTAACCTGTTGCTCGG [ATGTCCCCTGA_LTGcore_CT_RTGcore_CC] (site ATGTCCCCTGA) (LTG core: CT, RTG core: CC)	0.29
ATGTCCCGATGGGTTCTAACCTGTTGCTCAG [ATGTCCCCTGA_LTGcore_GA_RTGcore_CT] (site ATGTCCCCTGA) (LTG core: GA, RTG core: CT)	0.647
ATGTCCCGGTGGGTTCTAACCTGTTGCTCAG [ATGTCCCCTGA_LTGcore_GG_RTGcore_CT] (site ATGTCCCCTGA) (LTG core: GG, RTG core: CT)	0.294
ATGTCCCGTTGGGTTCTAACCTGTTGCTCAC [ATGTCCCCTGA_LTGcore_GT_RTGcore_GT] (site ATGTCCCCTGA) (LTG core: GT, RTG core: GT)	0.0823
ATGTCCCTCTGGGTTCTAACCTGTTGCTCAG [ATGTCCCCTGA_LTGcore_TC_RTGcore_CT] (site ATGTCCCCTGA) (LTG core: TC, RTG core: CT)	0.209
ATGTCCCTGTGGGTTCTAACCTGTTGCTCAG [ATGTCCCCTGA_LTGcore_TG_RTGcore_CT] (site ATGTCCCCTGA) (LTG core: TG, RTG core: CT)	0.0616
ATGTCCCTGTGGGTTCTAACCTGTTGCTCCA [ATGTCCCCTGA_LTGcore_TG_RTGcore_TG] (site ATGTCCCCTGA) (LTG core: TG, RTG core: TG)	0.0547
CATATTAACTGGGTTCTAACCTGTTGCCTAG [CATATTACTAG_LTGcore_AC_RTGcore_CT] (site CATATTACTAG) (LTG core: AC, RTG core: CT)	0.441
CATATTACCTGGGTTCTAACCTGTTGCCTAG [CATATTACTAG_LTGcore_CC_RTGcore_CT] (site CATATTACTAG) (LTG core: CC, RTG core: CT)	0.0888
CATATTACTTGGGTTCTAACCTGTTGCCTCC [CATATTACTAG_LTGcore_CT_RTGcore_GG] (site CATATTACTAG) (LTG core: CT, RTG core: GG)	0.2
CATATTACTTGGGTTCTAACCTGTTGCCTTA [CATATTACTAG_LTGcore_CT_RTGcore_TA] (site CATATTACTAG) (LTG core: CT, RTG core: TA)	0.12
CATATTACTTGGGTTCTAACCTGTTGCCTTG [CATATTACTAG_LTGcore_CT_RTGcore_CA] (site CATATTACTAG) (LTG core: CT, RTG core: CA)	0.214
CATATTAGATGGGTTCTAACCTGTTGCCTAG [CATATTACTAG_LTGcore_GA_RTGcore_CT] (site CATATTACTAG) (LTG core: GA, RTG core: CT)	0.239
